Here are results for 21 compounds from ChEMBL document CHEMBL1144109, “Structures and cytotoxicity relationship of isoaaptamine and aaptamine derivatives” (J Nat Prod, 1999).

By IC50 is commonly meant the point on the concentration scale where inhibition reaches its midpoint. Lower therefore signals greater potency in that assay.

Holding throughout (type): functional, cell-based
Test [1] has as its system P388. In words: Cytotoxicity against mouse P388 cells after 3 days by MTT assay. Particulars: P388, 72 h. Background: Tetrazolium assays rely on reduction of a dye to a coloured formazan, in cell work by metabolically active cells.
Test [2] is described as follows: Cytotoxicity against human KB16 cells after 3 days by MTT assay. The conditions noted are these: KB16, 72 h.
Test [3] has as its system A549. As to the kind of experiment: Cytotoxicity against human A549 cells after 6 days by MTT assay. Particulars: A549, 144 h.
The subject of test [4] is HT-29. As to the kind of experiment: Cytotoxicity against human HT-29 cells after 6 days by MTT assay. Particulars: HT-29, 144 h.

Each structure is given as a SMILES string. In brackets after ≈: the same amount, converted by molar mass.

Consider `CCC(=O)Oc1c(OC)cc2ccnc3c2c1N(C)C=C3`, for which the IC50 is 1.4 µg/mL (≈ 4.92 µM) in test [1], 28 µg/mL (≈ 98.5 µM) in test [2], 18 µg/mL (≈ 63.3 µM) in test [3] and 13 µg/mL (≈ 45.7 µM) in test [4].

For `CCCCCC(=O)Oc1c(OC)cc2ccnc3c2c1N(C)C=C3`, the IC50 came out at 0.7 µg/mL (≈ 2.14 µM) in test [1], 33 µg/mL (≈ 101 µM) in test [2], 13 µg/mL (≈ 39.8 µM) in test [3] and 12 µg/mL (≈ 36.8 µM) in test [4].

As to `COc1cc2c3c(ccnc3c1OC)N(C(C)=O)CC2`, the 50% inhibitory concentration (IC50) in test [1] came to 2.6 µg/mL (≈ 9.55 µM); in test [2], 32 µg/mL (≈ 118 µM); in test [3], 20 µg/mL (≈ 73.4 µM); in test [4] it was 17 µg/mL (≈ 62.4 µM).

Turning to `CCCCCCCCC(=O)Oc1c(OC)cc2ccnc3c2c1N(C)C=C3`, the IC50 in test [1] came to 0.04 µg/mL (≈ 0.109 µM); in test [2], 33 µg/mL (≈ 89.6 µM); in test [3], 12 µg/mL (≈ 32.6 µM); in test [4], 3 µg/mL (≈ 8.14 µM).

As to `COc1cc2ccnc3c2c(c1O)N(C)C=C3` [ISOAAPTAMINE], the 50% inhibitory concentration (IC50) in test [1] stood at 0.04 µg/mL (≈ 0.175 µM); in test [2] it was 0.4 µg/mL (≈ 1.75 µM); in test [3] it was 0.3 µg/mL (≈ 1.31 µM); in test [4] it was 0.4 µg/mL (≈ 1.75 µM).

As for `CCCCCCCCCCCCCC(=O)Oc1c(OC)cc2ccnc3c2c1N(C)C=C3`, the IC50 was found to be 0.3 µg/mL (≈ 0.684 µM) in test [1], 3.3 µg/mL (≈ 7.52 µM) in test [2], 5.6 µg/mL (≈ 12.8 µM) in test [3] and 2.7 µg/mL (≈ 6.16 µM) in test [4].

In the case of `COc1cc2c3c(ccnc3c1OC)NCC2` [DIHYDROAAPTAMINE], the IC50 in test [1] amounted to 1.8 µg/mL (≈ 7.82 µM); in test [2], 22 µg/mL (≈ 95.5 µM); in test [3], 23 µg/mL (≈ 99.9 µM); in test [4] it was 47 µg/mL (≈ 204 µM).

For the compound `CCCCCCCCCC(=O)Oc1c(OC)cc2ccnc3c2c1N(C)C=C3`, the IC50 in test [1] is 0.03 µg/mL (≈ 0.0784 µM); in test [2] it was 20 µg/mL (≈ 52.3 µM); in test [3], 6.1 µg/mL (≈ 15.9 µM); in test [4], 2.5 µg/mL (≈ 6.54 µM).

For the compound `CCCCCCC(=O)Oc1c(OC)cc2ccnc3c2c1N(C)C=C3`, the IC50 in test [1] was 0.7 µg/mL (≈ 2.06 µM); in test [2], 38 µg/mL (≈ 112 µM); in test [3] it was 11 µg/mL (≈ 32.3 µM); in test [4], 13 µg/mL (≈ 38.2 µM).

Regarding `CCCCCC(=O)N1CCc2cc(OC)c(OC)c3nccc1c23`, the concentration for half-maximal inhibition (IC50) in test [1] was 3.7 µg/mL (≈ 11.3 µM); in test [2], greater than 50 µg/mL; in test [3] it was greater than 50 µg/mL; in test [4] it was greater than 50 µg/mL.

Regarding `CCCCCCCCCCCCCCCCCC(=O)Oc1c(OC)cc2ccnc3c2c1N(C)C=C3`, the IC50 was 1.1 µg/mL (≈ 2.22 µM) in test [1], greater than 50 µg/mL in test [2], greater than 50 µg/mL in test [3] and 21 µg/mL (≈ 42.4 µM) in test [4].

On to `CCCCC(=O)Oc1c(OC)cc2ccnc3c2c1N(C)C=C3`, for which the IC50 stood at 1.8 µg/mL (≈ 5.76 µM) in test [1], 35 µg/mL (≈ 112 µM) in test [2], 13 µg/mL (≈ 41.6 µM) in test [3] and 9 µg/mL (≈ 28.8 µM) in test [4].

With `CCCCCCCCCCCCCCCCCC(=O)N1CCc2cc(OC)c(OC)c3nccc1c23`, the IC50 in test [1] is 2.7 µg/mL (≈ 5.44 µM); in test [2], 20 µg/mL (≈ 40.3 µM); in test [3], greater than 50 µg/mL; in test [4], greater than 50 µg/mL.

As for `COC1=Cc2ccnc3ccnc(c23)C1=O` [DEMETHYLOXY-AAPTAMINE], the concentration for half-maximal inhibition (IC50) in test [1] turned out to be 0.01 µg/mL (≈ 0.0471 µM); in test [2], 0.1 µg/mL (≈ 0.471 µM); in test [3] it was 0.3 µg/mL (≈ 1.41 µM).

For `COc1cc2ccnc3c2c(c1OC)NC=C3` [AAPTAMINE], the IC50 was found to be 0.6 µg/mL (≈ 2.63 µM) in test [1], 3.9 µg/mL (≈ 17.1 µM) in test [2], 2.8 µg/mL (≈ 12.3 µM) in test [3] and 6.9 µg/mL (≈ 30.2 µM) in test [4].

As to `CCCCCCCC(=O)Oc1c(OC)cc2ccnc3c2c1N(C)C=C3`, the IC50 in test [1] came out at 1.5 µg/mL (≈ 4.23 µM); in test [2], 15 µg/mL (≈ 42.3 µM); in test [3], 14 µg/mL (≈ 39.5 µM); in test [4], 12 µg/mL (≈ 33.9 µM).

With `COC1=Cc2ccnc3c2C1=C(OC)NC=C3` [AAPTOSINE], the IC50 in test [3] and in test [4] was greater than 50 µg/mL in each case.

For the compound `CCCCCCCCCCCCCCCC(=O)Oc1c(OC)cc2ccnc3c2c1N(C)C=C3`, the half-maximal inhibitory concentration (IC50) amounted to 0.1 µg/mL (≈ 0.214 µM) in test [1], 8 µg/mL (≈ 17.1 µM) in test [2], 7.3 µg/mL (≈ 15.6 µM) in test [3] and 9 µg/mL (≈ 19.3 µM) in test [4].

In the case of `CCCCCCCCCCCC(=O)N1CCc2cc(OC)c(OC)c3nccc1c23`, the IC50 was found to be 0.1 µg/mL (≈ 0.242 µM) in test [1], 7.8 µg/mL (≈ 18.9 µM) in test [2], 5.6 µg/mL (≈ 13.6 µM) in test [3] and 9.6 µg/mL (≈ 23.3 µM) in test [4].

As for `COc1cc2ccnc3c2c(c1OC(C)=O)N(C)C=C3`, the IC50 in test [1] is 4.2 µg/mL (≈ 15.5 µM); in test [2] it was greater than 50 µg/mL; in test [3] it was greater than 50 µg/mL; in test [4], greater than 50 µg/mL.

Turning to `CCCCCCCCCCCC(=O)Oc1c(OC)cc2ccnc3c2c1N(C)C=C3`, the IC50 in test [1] turned out to be 0.03 µg/mL (≈ 0.0731 µM); in test [2], 20 µg/mL (≈ 48.7 µM); in test [3] it was 3.7 µg/mL (≈ 9.01 µM); in test [4] it was 2.5 µg/mL (≈ 6.09 µM).
